Results: US9409884B2 (Rigel Pharmaceuticals, Inc., priority 2012, dated 2016)

Target: AMPK
Assay: AMPK activation, enzyme-linked immunosorbent assay
Type: biochemical
Conditions: Table 8, compounds of Table 1
Protocol: Compounds of Table 1 were assayed for their ability to activate AMPK using an enzyme-linked immunosorbent assay.
Compounds of Table 2 were assayed for their ability to activate AMPK using an enzyme-linked immunosorbent assay.
Compounds of Table 3 were assayed for their ability to activate AMPK using an enzyme-linked immunosorbent assay.
Compounds of Table 4 were assayed for their ability to activate AMPK using an enzyme-linked immunosorbent assay.
Compounds of Table 5 were assayed for their ability to activate AMPK using an enzyme-linked immunosorbent assay.
Compounds of Table 6 were assayed for their ability to activate AMPK using an enzyme-linked immunosorbent assay.
Compounds of Table 7 were assayed for their ability to activate AMPK using an enzyme-linked immunosorbent assay.

EC50	SMILES
100 to 500 nM	O=C(NC1CCN(Cc2ccncc2)CC1)c1cc(OC2CCN(c3ccc(C(F)(F)F)cc3)CC2)ccn1 [Compound 1-13, N-(1-(pyridin-4-ylmethyl)piperidin-4-yl)-4-(1-(4-(trifluoromethyl)phenyl)piperidin-4-yloxy)picolinamide]
< 100 nM	N#Cc1ccc(CN2CCC(NC(=O)c3cc4ccc(OC5CCN(c6ccc(C(F)(F)F)cc6)CC5)cc4s3)CC2)cc1 [Compound 1-144, N-(1-(4-cyanobenzyl)piperidin-4-yl)-6-(1-(4-(trifluoromethyl)phenyl)piperidin-4-yloxy)benzo [b]thiophene-2-carboxamide]
< 100 nM	Cc1c(C(=O)NC2CCN(Cc3ccncc3)CC2)oc2cc(OC3CCN(c4ccc(C(F)(F)F)cc4)CC3)ccc12 [Compound 1-65, 3-methyl-N-(1-(pyridin-4-ylmethyl)piperidin-4-yl)-6-(1-(4-(trifluoromethyl)phenyl)piperidin-4-yloxy)benzofuran-2-carboxamide]
100 to 500 nM	O=C(NC1CCN(S(=O)(=O)c2cccnc2)CC1)c1cc2ccc(OC3CCN(c4ccc(C(F)(F)F)cc4)CC3)cc2o1 [Compound 1-106, N-(1-(pyridin-3-ylsulfonyl)piperidin-4-yl)-6-(1-(4-(trifluoromethyl)phenyl)piperidin-4-yloxy)benzofuran-2-carboxamide]
< 100 nM	O=S(=O)(NC1CCN(Cc2ccc(C(F)(F)F)cc2)CC1)c1ccc(OC2CCN(c3ccc(C(F)(F)F)cc3)CC2)nc1 [Compound 1-58, N-(1-(4-(trifluoromethyl)benzyl)piperidin-4-yl)-6-(1-(4-(trifluoromethyl)phenyl)piperidin-4-yloxy)pyridine-3-sulfonamide]
< 100 nM	O=C(NC1CCN(C(=O)c2ccncc2)CC1)c1sc2cc(OC3CCN(c4ccc(C(F)(F)F)cc4)CC3)ccc2c1Cl [Compound 1-155, 3-chloro-N-(1-isonicotinoylpiperidin-4-yl)-6-(1-(4-(trifluoromethyl)phenyl)piperidin-4-yloxy)benzo[b] thiophene-2-carboxamide]
< 100 nM	N#Cc1ccc(CN2CCC(NC(=O)c3cc4cc(O[C@@H]5CCN(Cc6cnn(-c7ccc(C#N)cc7)c6)C[C@H]5F)ccc4o3)CC2)cc1 [Compound 1-166, N-(1-(4-cyanobenzyl)piperidin-4-yl)-5-((3,4-trans)-1-((1-(4-cyanophenyl)-1H-pyrazol-4-yl)methyl)-3-fluoropiperidin-4-yloxy)benzofuran-2-carboxamide]
< 100 nM	CS(=O)(=O)c1ccc(CN2CC[C@@H](Oc3ccc4oc(C(=O)NC5CCN(Cc6ccc(OC(F)(F)F)cc6)CC5)cc4c3)[C@H](F)C2)cc1 [Compound 1-172, 5-((3,4-trans)-3-fluoro-1-(4-(methylsulfonyl)benzyl)piperidin-4-yloxy)-N-(1-(4-(trifluoromethoxy)benzyl)piperidin-4-yl)benzofuran-2-carboxamide]

Same assay, conditions: Table 9, compounds of Table 2

EC50	SMILES
1000 to 5000 nM	O=C(NC1CCN(Cc2ccc(C(F)(F)F)cc2)CC1)c1ccc2[nH]c3c(c2c1)CN(Cc1ccccc1)CC3 [Compound 2-5, 2-benzyl-N-(1-(4-trifluoromethylbenzyl)piperidin-4-yl)-2,3,4,5-tetrahydro-1N-pyrido[4,3-b]indole-8-carboxamide]
10000 to 50000 nM	O=C(NC1CCN(S(=O)(=O)c2ccc(F)cc2)CC1)c1ccc2[nH]c3c(c2c1)CN(c1ccc(F)cc1)CC3 [Compound 2-35, 2-(4-fluorophenyl)-N-(1-(4-fluorophenylsulfonyl)piperidin-4-yl)-2,3,4,5-tetrahydro-1H-pyrido[4,3-b]indole-8-carboxamide]

Same assay, conditions: Table 10, compounds of Table 3

EC50	SMILES
100 to 1000 nM	O=C(NC1CCN(Cc2ccc(C(F)(F)F)cc2)CC1)c1ccc2c(c1)CN(Cc1ccc(F)cc1)CC2 [Compound 3-36, 2-(4-fluorobenzyl)-N-(1-(4-(trifluoromethyl)benzyl)piperidin-4-yl)-1,2,3,4-tetrahydroisoquinoline-7-carboxamide]
10000 to 100000 nM	N#Cc1ccc(CN2CCC(NC(=O)c3ccc(C(=O)NC4CCN(c5ccccc5)CC4)cc3)CC2)cc1 [Compound 3-32, N^1-(1-(4-cyanobenzyl)piperidin-4-yl)-N^4-(1-phenylpiperidin-4-yl)terephthalamide]
1000 to 10000 nM	CC(C)(C)OC(=O)N1CCC(Oc2ncc(C(=O)NC3CCN(Cc4ccc(C#N)cc4)CC3)s2)CC1 [Compound 3-26, tert-butyl 4-(5-(1-(4-cyanobenzyl)piperidin-4-ylcarbamoyl)thiazol-2-yloxy)piperidine-1-carboxylate]

Same assay, conditions: Table 11, compounds of Table 4

EC50	SMILES
< 500 nM	N#Cc1ccc(CN2CCC(NC(=O)c3ccc(C(=O)N4CCN(Cc5ccc(C#N)cc5)CC4)cn3)CC2)cc1 [Compound 4-1, 5-(4-(4-cyanobenzyl)piperazine-1-carbonyl)-N-(1-(4-cyanobenzyl)piperidin-4-yl)picolinamide]

Same assay, conditions: Table 12, compounds of Table 5

EC50	SMILES
1000 to 10000 nM	COc1cc(C(=O)NC2CCN(Cc3ccccc3)CC2)ccc1OC1CCN(c2cccs2)CC1 [Compound 5-8, N-(1-benzylpiperidin-4-yl)-3-methoxy-4-(1-(thiophen-2-yl)piperidin-4-yloxy)benzamide]
< 1000 nM	O=C(NC1CCN(Cc2ccccc2)CC1)c1ccc(OC2CCN(Cc3ccc(Cl)c(Cl)c3)CC2)c(Cl)c1 [Compound 5-84, N-(1-benzylpiperidin-4-yl)-3-chloro-4-(1-(3,4-dichlorobenzyl)piperidin-4-yloxy)benzamide]
10000 to 20000 nM	Cc1ccc(CN2CCC(Oc3ccc(C(=O)NCCCN4CCOCC4)cc3)CC2)cc1 [Compound 5-104, 4-(1-(4-methylbenzyl)piperidin-4-yloxy)-N-(3-morpholinopropyl)benzamide]
< 1000 nM	CC(C)(C)c1ccc(CN2CCC(Oc3ccc(C(=O)NC4CCN(Cc5ccccc5)CC4)cc3F)CC2)cc1 [Compound 5-20, N-(1-benzylpiperidin-4-yl)-3-fluoro-4-(1-(4-tert-butylbenzyl)piperidin-4-yloxy)benzamide]
1000 to 10000 nM	O=C(NC1CCN(Cc2ccccc2)CC1)c1ccc(OC2CCN(c3cccs3)CC2)c(Cl)c1 [Compound 5-10, N-(1-benzylpiperidin-4-yl)-3-chloro-4-(1-(thiophen-2-yl)piperidin-4-yloxy)benzamide]
1000 to 10000 nM	O=C(O)c1ccc(CN2CCC(NC(=O)c3ccc(OC4CCN(c5ccc(C(F)(F)F)cc5)CC4)c(F)c3)CC2)cc1 [Compound 5-35, 4-((4-(3-fluoro-4-(1-(4-(trifluoromethyl)phenyl)piperidin-4-yloxy)benzamido)piperidin-1-yl)methyl)benzoic acid]
1000 to 10000 nM	COc1cc(C(=O)NCCCN2CCOCC2)ccc1OC1CCN(Cc2ccc(Cl)cc2)CC1 [Compound 5-98, 4-(1-(4-chlorobenzyl)piperidin-4-yloxy)-4-methoxy-N-(3-morpholinopropyl)benzamide]

Same assay, conditions: Table 13, compounds of Table 6

EC50	SMILES
< 100 nM	N#Cc1ccc(CN2CCC(NC(=O)c3cc4cc(CN5CCN(Cc6ccc(F)cc6)CC5)ccc4o3)CC2)cc1 [Compound 6-13, N-(1-(4-cyanobenzyl)piperidin-4-yl)-5-((4-(4-fluorobenzyl)piperazin-1-yl)methyl)benzofuran-2-carboxamide]
< 100 nM	O=C(NC1CCN(Cc2ccc(OC(F)(F)F)cc2)CC1)c1cc2cc(C(=O)N3CCN(c4cccc(C(F)(F)F)c4)CC3)ccc2o1 [Compound 6-140, N-(1-(4-(trifluoromethoxy)benzyl)piperidin-4-yl)-5-(4-(3-(trifluoromethyl)phenyl)piperazine-1-carbonyl) benzofuran-2-carboxamide]
100 to 1000 nM	N#Cc1ccc(CN2CCC(NC(=O)c3cc4cc(NC(=O)c5ccc(Oc6ccc(F)cc6)nc5)ccc4o3)CC2)cc1 [Compound 6-64, N-(2-(1-(4-cyanobenzyl)piperidin-4-ylcarbamoyl)benzofuran-5-yl)-6-(4-fluorophenoxy)nicotinamide]
100 to 1000 nM	CS(=O)(=O)c1ccc(CN2CCN(C(=O)c3ccc4cc(C(=O)NC5CCN(Cc6ccc(OC(F)(F)F)cc6)CC5)oc4c3)CC2)cc1 [Compound 6-4, 6-(4-(4-(methylsulfonyl)benzyl)piperazine-1-carbonyl)-N-(1-(4-(trifluoromethoxy)benzyl)piperidin-4-yl)benzofuran-2-carboxamide]
100 to 1000 nM	N#Cc1ccc(CN2CCC(NC(=O)c3cc4cc(NC(=O)Cc5ccc(C(F)(F)F)cc5)ccc4o3)CC2)cc1 [Compound 6-54, N-(1-(4-cyanobenzyl)piperidin-4-yl)-5-(2-(4-(trifluoromethyl)phenyl)acetamido)benzofuran-2-carboxamide]
1000 to 10000 nM	N#Cc1ccc(CC(=O)Nc2ccc3oc(C(=O)NC4CCN(Cc5ccc(C#N)cc5)CC4)cc3c2)cc1 [Compound 6-67, N-(1-(4-cyanobenzyl)piperidin-4-yl)-5-(2-(4-cyanophenyl)acetamido) benzofuran-2-carboxamide]

Same assay, conditions: Table 14, compounds of Table 7

EC50	SMILES
< 1000 nM	COc1ccc(C(=O)C2CCN(C(=O)c3ccc(C(=O)NC4CCN(Cc5ccc(F)c(OC)c5)C[C@H]4F)cn3)CC2)cc1 (stereo partly drawn) [Compound 7-43, N-((3,4-trans)-3-fluoro-1-(4-fluoro-3-methoxybenzyl)piperidin-4-yl)-6-(4-(4-methoxybenzoyl)piperidine-1-carbonyl)nicotinamide]
< 1000 nM	COc1ccc(C(=O)C2CCN(C(=O)c3ccc(C(=O)NC4CCN(Cc5cccc(C#N)c5)C[C@@H]4F)cn3)CC2)cc1 (stereo partly drawn) [Compound 7-27, N-((3,4-trans)-1-(3-cyanobenzyl)-3-fluoropiperidin-4-yl)-6-(4-(4-methoxybenzoyl)piperidine-1-carbonyl)nicotinamide]
1000 to 10000 nM	COc1ccc(C(=O)C2CCN(C(=O)c3ccc(C(=O)NC4CCN(Cc5ccc(C#N)cc5C)C[C@H]4F)cn3)CC2)cc1 (stereo partly drawn) [Compound 7-56, N-((3,4-trans)-1-(4-cyano-2-methylbenzyl)-3-fluoropiperidin-4-yl)-6-(4-(4-methoxybenzoyl)piperidine-1-carbonyl)nicotinamide]
